# Reference: patent US9452159B2, “6-aminopyridine-3-ol derivatives or pharmaceutically acceptable salts thereof, and pharmaceutical composition containing same as active ingredients for preventing or treating diseases caused by angiogenesis” (Research Cooperation Foundation of Yeungnam University, priority 2011, dated 2016)
# How the values were obtained:
# [1] = test system: ARPE-19 (adult retinal pigment epithelium-19) cell line; assay: Macular degeneration risk factor-derived ROS scavenging ability; assay type: cell-based; conditions: compared to a control
# Protocol: (§1) DCF-DA (2′,7′-dichlorofluorescein diacetate) was used to measure a VEGF-derived ROS scavenging ability in HUVEC cells. When ROS exists in cells, DCF-DA is oxidized into fluorescent DCF, thereby emitting green fluorescent light. 1×10^5 concentration of HUVEC was spread onto a 0.2% gelatin coated 8-well plate, and then incubated for 24 hours. The cells were pretreated with Compounds 6a or 6i for 3 hours and then, treated with VEGF for 15 minutes, and then, washed three times with PBS (pH 7.4), and then, 10 μM of DCF-DA was added to EBM-2 medium, which was then placed in dark condition for 30 minutes. Then, the cells were washed three times with PBS, and a degree of intracellular fluorescence was measured by using a fluorescent microscope.
# The same experiment as used in Experimental Example 3 was performed, except that ARPE-19 (adult retinal pigment epithelium-19) cell line was treated with 4-hydroxynonenal (4-HNE) or angiotensin II (Ang II), which are macular degeneration risk factors, to identify ROS scavenging ability of Compound 6a.
# [2] = test system: chorioallantoic membrane (CAM); assay: Chorioallantoic membrane (CAM) assay, VEGF-derived angiogenesis; assay type: in vivo, chick
# Protocol: To examine angiogenesis inhibiting effects in vivo, CAM assay was performed (Nguyen Metal., Microvascular Res., 47, pp 31-40, 1994). Hen's fertile eggs were incubated at a temperature of 37° C. and in relative humidity 55%, and on the 10th day after the incubation, an air sac site was punched by using a hypodermic needle (Greencross Medical Science Corp, Korea) to form a first hole, and then, a planar site of the fertile egg where a window was to be formed was punched to form a second hole. Air was removed through the first pore of the air sac site to allow the chorioallantoic membrane (CAM) to be separated from the shell of the fertile egg, and this site was cut by using a grinding wheel (Multipro 395JA, Dremel, Mexico) to form a window. […] Through the window, the filter disc was placed on blood vessels, which were then treated with the compounds each dissolved in dimethylsulfoxide (DMSO) and diluted with phosphate buffer solution (PBS) at various concentrations. 3 days after the treatment with the compounds, the CAM site with the filter disc placed thereon was separated, and then washed with a phosphate buffer solution, and an image thereof was obtained by using a stereomicroscope (Stemi SV6 stereomicroscope, Carl Zeiss, Germany) and image-Pro Plus software (Media Cybernetics; Silver Spring, Md., U.S.A.) to count the number of blood vessel branches, and the obtained results were assayed.
# A549 lung cancer cells = assay: Oncogenesis-derived angiogenesis and tumor growth on CAM inoculated with A549 lung cancer cells; assay type: in vivo, chick; conditions: A549 cells 1.5×10^6 cell/CAM, various concentrations, five days after inoculation; FIG. 4
# Protocol: Hen's fertile eggs were incubated, and on the 9th day, a window was formed in the same manner as in Experimental Example 1, and instead of a disc, A549 lung cancer cells were mixed with matrigel at a ratio of 1:1, and then the cells were treated with Compounds 6a and 6i and inoculated at a concentration of 1.5×10^6 cell/CAM. Five days after the inoculation, the CAM site where tumors developed was separated and washed with a phosphate buffer solution, and then, an image thereof was obtained by using a stereomicroscope (Stemi SV6 stereomicroscope, Carl Zeiss, Germany) and Image-Pro Plus software (Media Cybernetics; Silver Spring, Md., U.S.A.) to count the number of blood vessel branches, and the results were assayed.
# HUVEC cells = assay: VEGF-derived ROS scavenging ability (DCF-DA fluorescence); assay type: cell-based; conditions: HUVEC pretreated 3 hours, then VEGF 15 minutes, compared to VEGF, FIG. 5
# Protocol: as §1
# Male Balb/c mice = assay: Toxicity test, single oral administration; assay type: in vivo; conditions: once, 0.5 g/kg, 1 g/kg and 2 g/kg in 0.5% methylcellose, 7 days
# Protocol: Male Balb/c mice were orally administered once with Compound 6a suspended in a 0.5% methylcellose solution, in a dosage of each of 0.5 g/kg, 1 g/kg, and 2 g/kg, and then, for 7 days, the survival rate and body weight of the mice were measured.
# After the administration, the death, clinical symptoms, and body weight change of the mice were analyzed, and a hematological examination and a blood biochemical examination were performed. Then, the autopsy of the mice was performed, and abnormality of abdominal cavity organs and thoracic cavity organs was examined.
smiles,measurement,setting,value
"Cc1nc(N)c(C)c(C)c1O [Compound 6a, 6-amino-2,4,5-trimethylpyridin-3-ol]","degree of intracellular fluorescence (ROS), 4-hydroxynonenal (4-HNE)","[1]; ARPE-19 treated with 4-HNE, FIG. 7",substantially decreased
same,"degree of intracellular fluorescence (ROS), angiotensin II (Ang II)","[1]; ARPE-19 treated with Ang II, FIG. 6",substantially decreased
same,inhibition in vivo at 0.1 µM,"[2]; Gallus gallus, 72 h, VEGF (50 ng/CAM) + 0.15 ng/CAM, 0.1 μM, 3 days after treatment, read-out: Inhibition ratio",64 ± 8.8%
same,inhibition in vivo at 1 µM,"[2]; Gallus gallus, 72 h, VEGF (50 ng/CAM) + 1.5 ng/CAM, 1 μM, 3 days after treatment, read-out: Inhibition ratio",76.3 ± 5.2%
same,IC50,"[2]; Gallus gallus, CAM treated with various concentrations, FIG. 3, read-out: IC50 with respect to angiogenesis inhibition",2 nM
same,Number of blood vessel branches/main blood vessel,"[2]; VEGF (50 ng/CAM) + 0.15 ng/CAM, 0.1 μM, 3 days after treatment",28 ± 3.3^8
same,Number of blood vessel branches/main blood vessel,"[2]; VEGF (50 ng/CAM) + 1.5 ng/CAM, 1 μM, 3 days after treatment",23.3 ± 2.0^8
same,angiogenesis inhibiting effects,"[2]; VEGF-treated CAM, summary of Table 1, 6a compared with SU4312, batimastat and α-tocopherol",excellent angiogenesis inhibiting effects even at low concentration
same,oncogenesis-derived angiogenesis,A549 lung cancer cells,inhibited
same,tumor growth,A549 lung cancer cells,inhibited
same,degree of intracellular fluorescence (VEGF-derived ROS),HUVEC cells,substantial decrease
same,"body weight change, blood examination, blood biochemical examination, and autopsy results",Male Balb/c mice,no toxicity change
same,clinical symptoms,Male Balb/c mice,did not have distinguishing clinical symptoms
same,death,Male Balb/c mice,did not die
